Read-outs that look alike come from different tables or passages of the source. Marks after values point to notes of the source that are not given here.
Key:
male rats = assay: 28-day repeated dose oral toxicity study (OECD 407) with GC-MS/LC-MS plasma metabolite profiling, male rats; format: in vivo, rat
From the text: Drinking water was also offered ad libitum.
The samples were centrifuged for generation of plasma.

female rats [1] = assay: 28-day repeated dose oral toxicity study (OECD 407) with GC-MS/LC-MS plasma metabolite profiling, female rats
Procedure: (§1) A group of each 5 male and female rats was dosed once daily with the indicated compounds (see Table 5, below for compounds, applied doses and administeration details) over 28 days.
(§2) Each dose group in the studies consisted of five rats per sex. Additional groups of each 5 male and female animals served as controls. Before starting the treatment period, animals, which were 62-64 days old when supplied, were acclimatized to the housing and environmental conditions for 7 days. All animals of the animal population were kept under the same constant temperature (20-24±3° C.) and the same constant humidity (30-70%). The animals of the animal population were fed ad libitum. The food to be used was essentially free of chemical or microbial contaminants. Drinking water was also offered ad libitum. Accordingly, the water was free of chemical and microbial contaminants as laid down in the European Drinking Water Directive 98/83/EG. The illumination period was 12 hours light followed by 12 hours darkness (12 hours light, from 6:00 to 18:00, and 12 hours darkness, from 18:00 to 6:00).
(§3) In the morning of day 7, 14, and 28, blood was taken from the retroorbital venous plexus from fasted anaesthetized animals. From each animal, 1 ml of blood was collected with EDTA as anticoagulant. The samples were centrifuged for generation of plasma. All plasma samples were covered with a N2 atmosphere and then stored at −80° C. until analysis.
(§4) For mass spectrometry-based metabolite profiling analyses plasma samples were extracted and a polar and a non-polar (lipid) fraction was obtained. For GC-MS analysis, the non-polar fraction was treated with methanol under acidic conditions to yield the fatty acid methyl esters. Both fractions were further derivatised with O-methyl-hydroxyamine hydrochloride and pyridine to convert Oxogroups to O-methyloximes and subsequently with a silylating agent before analysis. In LC-MS analysis, both fractions were reconstituted in appropriate solvent mixtures. HPLC was performed by gradient elution on reversed phase separation columns.
(§5) Following comprehensive analytical validation steps, the data for each analyte were normalized against data from pool samples. These samples were run in parallel through the whole process to account for process variability. The significance of treatment group values specific for sex, treatment duration and metabolite was determined by comparing means of the treated groups to the means of the respective untreated control groups using WELCH-test and quantified with treatment ratios versus control and p-values.

female rats [2] = details: rat, in vivo
Procedure: as §1, §2, §3, §4, §5

Threonine, ratio versus control (female rats [2]): 1.05*
Structure (SMILES): CC/C(=C(\c1ccccc1)c1ccc(OCCN(C)C)cc1)c1ccccc1 [Tamoxifen]
16-Methylheptadecanoic acid change in plasma (male rats; m7): 0.58*
17-Methyloctadecanoic acid change in plasma (male rats; m7): 0.61*
Campesterol change in plasma (male rats; m7): 0.59*
Lysophosphatidylcholine (C18:1) change in plasma (male rats; m7): 0.78*
Myristic acid (C14:0) change in plasma (male rats; m7): 0.65*
PC No 04 (putative) change in plasma (male rats; m7): 0.44*
Palmitoleic acid (C16:cis[9]1) change in plasma (male rats; m7): 0.57*
Phosphatidylcholine (C16:0,C20:4) change in plasma (male rats; m7): 0.87*
Phosphatidylcholine (C16:1,C18:2) change in plasma (male rats; m7): 0.76*
Phosphatidylcholine (C18:1,C18:2) change in plasma (male rats; m7): 0.79*
Phosphatidylcholine No 02 change in plasma (male rats; m7): 0.53*
Sphingomyelin (d18:1,C16:0) change in plasma (male rats; m7): 0.66*
Tyrosine change in plasma (male rats; m7): 0.77*
Unknown lipid (28000473) change in plasma (male rats; m7): 0.31*
Unknown lipid (68000034) change in plasma (male rats; m7): 0.74*
Uracil change in plasma (male rats; m7): 0.86*
beta-Sitosterol change in plasma (male rats; m7): 0.75*
Lysophosphatidylcholine (C20:4) change in plasma (male rats; m7, first of two rows with this name (r24)): 0.90*
Lysophosphatidylcholine (C20:4) change in plasma (male rats; m7, second of two rows with this name (r25)): 0.77*
16-Methylheptadecanoic acid change in plasma (male rats; m14): 0.60*
17-Methyloctadecanoic acid change in plasma (male rats; m14): 0.64*
Campesterol change in plasma (male rats; m14): 0.74*
Lysophosphatidylcholine (C18:1) change in plasma (male rats; m14): 0.84*
Myristic acid (C14:0) change in plasma (male rats; m14): 0.60*
PC No 04 (putative) change in plasma (male rats; m14): 0.56*
Palmitoleic acid (C16:cis[9]1) change in plasma (male rats; m14): 0.43*
Phosphatidylcholine (C16:0,C20:4) change in plasma (male rats; m14): 0.96*
Phosphatidylcholine (C16:1,C18:2) change in plasma (male rats; m14): 0.69*
Phosphatidylcholine (C18:1,C18:2) change in plasma (male rats; m14): 0.83*
Phosphatidylcholine No 02 change in plasma (male rats; m14): 0.60*
Sphingomyelin (d18:1,C16:0) change in plasma (male rats; m14): 0.73*
Tyrosine change in plasma (male rats; m14): 0.85*
Unknown lipid (28000473) change in plasma (male rats; m14): 0.46*
Unknown lipid (68000034) change in plasma (male rats; m14): 0.59*
Uracil change in plasma (male rats; m14): 0.75*
beta-Sitosterol change in plasma (male rats; m14): 0.83*
Lysophosphatidylcholine (C20:4) change in plasma (male rats; m14, first of two rows with this name (r24)): 0.89*
Lysophosphatidylcholine (C20:4) change in plasma (male rats; m14, second of two rows with this name (r25)): 0.79*
16-Methylheptadecanoic acid change in plasma (male rats; m28): 0.48*
17-Methyloctadecanoic acid change in plasma (male rats; m28): 0.48*
Campesterol change in plasma (male rats; m28): 0.55*
Lysophosphatidylcholine (C18:1) change in plasma (male rats; m28): 0.81*
Myristic acid (C14:0) change in plasma (male rats; m28): 0.61*
PC No 04 (putative) change in plasma (male rats; m28): 0.54*
Palmitoleic acid (C16:cis[9]1) change in plasma (male rats; m28): 0.32*
Phosphatidylcholine (C16:0,C20:4) change in plasma (male rats; m28): 0.97*
Phosphatidylcholine (C16:1,C18:2) change in plasma (male rats; m28): 0.74*
Phosphatidylcholine (C18:1,C18:2) change in plasma (male rats; m28): 0.99
Phosphatidylcholine No 02 change in plasma (male rats; m28): 0.62*
Sphingomyelin (d18:1,C16:0) change in plasma (male rats; m28): 0.71*
Tyrosine change in plasma (male rats; m28): 0.86
Unknown lipid (28000473) change in plasma (male rats; m28): 0.37*
Unknown lipid (68000034) change in plasma (male rats; m28): 0.45*
Uracil change in plasma (male rats; m28): 0.79*
beta-Sitosterol change in plasma (male rats; m28): 0.73*
Lysophosphatidylcholine (C20:4) change in plasma (male rats; m28, first of two rows with this name (r24)): 0.88*
Lysophosphatidylcholine (C20:4) change in plasma (male rats; m28, second of two rows with this name (r25)): 0.70*
3-Methoxytyrosine, ratio versus control (male rats; plasma, day 7): 1.17*
Serine, ratio versus control (male rats; plasma, day 7): 1.17*
Xylitol, ratio versus control (male rats; plasma, day 7): 1.57*
Threonine, ratio versus control (male rats; plasma, day 7 (Table 7c)): 0.96
3-Methoxytyrosine, ratio versus control (male rats; plasma, day 14): 1.31*
Xylitol, ratio versus control (male rats; plasma, day 14): 2.05*
Threonine, ratio versus control (male rats; plasma, day 14 (Table 7c)): 1.22*
3-Methoxytyrosine, ratio versus control (male rats; plasma, day 28): 1.39*
Xylitol, ratio versus control (male rats; plasma, day 28): 1.75*
Threonine, ratio versus control (male rats; plasma, day 28 (Table 7c)): 1.10*
3-Methoxytyrosine, ratio versus control (female rats [1]; day 7): 1.26*
16-Methylheptadecanoic acid, ratio versus control (female rats [1]; day 7): 0.73*
17-Methyloctadecanoic acid, ratio versus control (female rats [1]; day 7): 0.80*
Ketoleucine, ratio versus control (female rats [1]; day 7): 0.92
Normetanephrine, ratio versus control (female rats [1]; day 7): 0.84
Palmitoleic acid (C16:cis[9]1), ratio versus control (female rats [1]; day 7): 0.91
Phosphatidylcholine (C18:0,C20:3), ratio versus control (female rats [1]; day 7): 0.81*
TAG (C18:1,C18:2,C18:3), ratio versus control (female rats [1]; day 7): 2.78*
TAG (C42:9) (DAG-Fragment) (putative), ratio versus control (female rats [1]; day 7): 0.56*
Threonine, ratio versus control (female rats [1]; day 7): 1.17*
Uracil, ratio versus control (female rats [1]; day 7): 0.86*
Xylitol, ratio versus control (female rats [1]; day 7): 1.29*
TAG (C18:2,C18:2), ratio versus control (female rats [1]; day 7 (Table 7a)): 3.21*
Lysophosphatidylcholine (C20:4), ratio versus control (female rats [1]; day 7 (first line of this name, r15)): 0.92*
Lysophosphatidylcholine (C20:4), ratio versus control (female rats [1]; day 7 (second line of this name, r16)): 0.88*
3-Methoxytyrosine, ratio versus control (female rats [1]; day 14): 1.61*
16-Methylheptadecanoic acid, ratio versus control (female rats [1]; day 14): 0.97
17-Methyloctadecanoic acid, ratio versus control (female rats [1]; day 14): 0.92
Ketoleucine, ratio versus control (female rats [1]; day 14): 0.71*
Normetanephrine, ratio versus control (female rats [1]; day 14): 1.15
Palmitoleic acid (C16:cis[9]1), ratio versus control (female rats [1]; day 14): 0.69*
Phosphatidylcholine (C18:0,C20:3), ratio versus control (female rats [1]; day 14): 0.89*
TAG (C18:1,C18:2,C18:3), ratio versus control (female rats [1]; day 14): 2.96*
TAG (C42:9) (DAG-Fragment) (putative), ratio versus control (female rats [1]; day 14): 0.65*
Uracil, ratio versus control (female rats [1]; day 14): 0.86*
Xylitol, ratio versus control (female rats [1]; day 14): 1.63*
TAG (C18:2,C18:2), ratio versus control (female rats [1]; day 14 (Table 7a)): 2.84*
Lysophosphatidylcholine (C20:4), ratio versus control (female rats [1]; day 14 (first line of this name, r15)): 0.96*
Lysophosphatidylcholine (C20:4), ratio versus control (female rats [1]; day 14 (second line of this name, r16)): 0.84*
3-Methoxytyrosine, ratio versus control (female rats [1]; day 28): 1.38*
16-Methylheptadecanoic acid, ratio versus control (female rats [1]; day 28): 0.78*
17-Methyloctadecanoic acid, ratio versus control (female rats [1]; day 28): 0.89*
Ketoleucine, ratio versus control (female rats [1]; day 28): 0.77*
Normetanephrine, ratio versus control (female rats [1]; day 28): 0.89
Palmitoleic acid (C16:cis[9]1), ratio versus control (female rats [1]; day 28): 0.60*
Phosphatidylcholine (C18:0,C20:3), ratio versus control (female rats [1]; day 28): 0.88*
TAG (C18:1,C18:2,C18:3), ratio versus control (female rats [1]; day 28): 2.18*
TAG (C42:9) (DAG-Fragment) (putative), ratio versus control (female rats [1]; day 28): 0.81*
Threonine, ratio versus control (female rats [1]; day 28): 0.98
Uracil, ratio versus control (female rats [1]; day 28): 0.64*
Xylitol, ratio versus control (female rats [1]; day 28): 1.71*
TAG (C18:2,C18:2), ratio versus control (female rats [1]; day 28 (Table 7a)): 2.20*
Lysophosphatidylcholine (C20:4), ratio versus control (female rats [1]; day 28 (first line of this name, r15)): 0.91*
Lysophosphatidylcholine (C20:4), ratio versus control (female rats [1]; day 28 (second line of this name, r16)): 0.81*

From patent US20150017667A1, “MEANS AND METHODS FOR ASSESSING LIVER DISORDERS” (BASF SE, priority 2012, published 2015)
